For data set [1], the system named is Trypanosoma brucei rhodesiense. Put plainly: Antitrypanosomal activity against Trypanosoma brucei rhodesiense STIB900 bloodstream forms after 70 hrs by Alamar blue staining-based fluorometric analysis. The format is functional, organism-based. The following applies: STIB900, 70 h.
Data set [2] is described as follows: Selectivity index, ratio of IC50 for rat L6 cells to IC50 for Trypanosoma brucei rhodesiense STIB900 bloodstream forms. It counts as toxicity. The following applies: read-out: Ratio IC50.
A short description of data set [3]: Growth inhibition of human MRC5 cells at 140 uM after 72 hrs by XTT assay relative to control. It counts as cell-based. The following applies: read-out: GI. Background: Tetrazolium assays rely on reduction of a dye to a coloured formazan, in cell work by metabolically active cells.
Data set [4] can be described thus: Selectivity index, ratio of IC50 for rat L6 cells to IC50 for erythrocytic stage of Plasmodium falciparum NF54. It counts as toxicity. The following applies: read-out: Ratio IC50.
The test system of data set [5] is Plasmodium falciparum. Put plainly: Antimalarial activity against erythrocytic stage of Plasmodium falciparum NF54 assessed as inhibition of [3H]-hypoxanthine incorporation after 48 hrs by liquid scintillation counting analysis. The format is functional, organism-based.
In data set [6] the test system is Plasmodium berghei. The data set is described as follows: Antiplasmodial activity against GFP expressing Plasmodium berghei ANKA infected in NMRI mouse assessed as mouse mean survival days at 10 mg/kg, ip administered 4 hrs, 24 hrs, 48 hrs, 72 hrs post infection for 4 days and measured 72 hrs post infection by FACS analysis (reference value: 4 days). The format is functional.

The test system of data set [7] is Plasmodium berghei. The data set is described as follows: Antiplasmodial activity against GFP expressing Plasmodium berghei ANKA infected in NMRI mouse assessed as reduction in parasitemia at 10 mg/kg, ip administered 4 hrs, 24 hrs, 48 hrs, 72 hrs post infection for 4 days and measured 72 hrs post infection by FACS analysis relative to control. The arrangement: scale not given: the % may be the effect or the level left. The format is functional. (In flow cytometry, cells or beads pass a laser one at a time.)

The test system of data set [8] is L6. Put plainly: Cytotoxicity against rat L6 cells after 70 hrs by Alamar blue staining-based fluorometric analysis. The following applies: L6, 70 h, read-out: IC50. It counts as cell-based. For orientation: The colour change of resazurin is a common sign of viable cells or microbes.
The test system of data set [9] is Staphylococcus aureus. Put plainly: Antimicrobial activity against Staphylococcus aureus subsp. aureus ATCC 25923 assessed as zone of inhibition at 50 ug per disc after 24 hrs by disc diffusion assay. The format is functional. The following applies: ATCC 25923, 24 h, read-out: DIZ.
In data set [10] the test system is Candida tropicalis. Put plainly: Antimicrobial activity against Candida tropicalis ATCC 13803 assessed as zone of inhibition at 50 ug per disc after 48 hrs by disc diffusion assay. It counts as functional. As to conditions: ATCC 13803, 48 h, read-out: DIZ.
Data set [11] has as its system Bacillus subtilis. Put plainly: Antimicrobial activity against Bacillus subtilis subsp. subtilis ATCC 6051 assessed as zone of inhibition at 50 ug per disc after 24 hrs by disc diffusion assay. The format is functional. The following applies: subsp. subtilis ATCC 6051, 24 h, read-out: DIZ.
Data set [12] relates to Candida albicans. The data set is described as follows: Antimicrobial activity against Candida albicans ATCC 10231 assessed as zone of inhibition at 50 ug per disc after 48 hrs by disc diffusion assay. The format is functional. As to conditions: ATCC 10231, 48 h, read-out: DIZ.
The test system of data set [13] is Candida parapsilosis. Put plainly: Antimicrobial activity against Candida parapsilosis ATCC 90018 assessed as zone of inhibition at 50 ug per disc after 48 hrs by disc diffusion assay. It counts as functional. The following applies: Lodderomyces parapsilosis, ATCC 90018, 48 h; read-out: DIZ.
Data set [14] can be described thus: Growth inhibition of human MRC5 cells at 120 uM after 72 hrs by XTT assay relative to control. It counts as cell-based. As to conditions: read-out: GI.
Data set [15] concerns Staphylococcus epidermidis. The data set is described as follows: Antimicrobial activity against Staphylococcus epidermidis ATCC 12228 assessed as zone of inhibition at 50 ug per disc after 24 hrs by disc diffusion assay. The format is functional. The following applies: ATCC 12228, 24 h, read-out: DIZ.
The subject of data set [16] is Klebsiella oxytoca. The data set is described as follows: Antimicrobial activity against Klebsiella oxytoca ATCC 8724 assessed as zone of inhibition at 50 ug per disc after 24 hrs by disc diffusion assay. The following applies: ATCC 8724, 24 h, read-out: DIZ. It counts as functional.
Data set [17] relates to Escherichia coli. The data set is described as follows: Antimicrobial activity against Escherichia coli ATCC 25922 assessed as zone of inhibition at 50 ug per disc after 24 hrs by disc diffusion assay. The format is functional. The following applies: ATCC 25922, 24 h, read-out: DIZ.
The subject of data set [18] is Mycolicibacterium smegmatis. The data set is described as follows: Antimycobacterial activity against Mycobacterium smegmatis ATCC 14468 after 72 hrs by MTT dye-based microbroth dilution assay. The format is functional. The following applies: ATCC 14468, 72 h.
In data set [19] the test system is Pseudomonas aeruginosa. The data set is described as follows: Antimicrobial activity against Pseudomonas aeruginosa ATCC 27853 assessed as zone of inhibition at 50 ug per disc after 24 hrs by disc diffusion assay. The format is functional. The following applies: ATCC 27853, 24 h, read-out: DIZ.
The test system of data set [20] is Plasmodium berghei. The data set is described as follows: Antiplasmodial activity against GFP expressing Plasmodium berghei ANKA infected in NMRI mouse assessed as mouse mean survival days at 50 mg/kg, ip administered 4 hrs, 24 hrs, 48 hrs, 72 hrs post infection for 4 days and measured 72 hrs post infection by FACS analysis (reference value: 4 days). The format is functional.

For data set [21], the system named is Plasmodium berghei. Put plainly: Antiplasmodial activity against GFP expressing Plasmodium berghei ANKA infected in NMRI mouse assessed as reduction in parasitemia at 50 mg/kg, ip administered 4 hrs, 24 hrs, 48 hrs, 72 hrs post infection for 4 days and measured 72 hrs post infection by FACS analysis relative to control. It counts as functional. The arrangement: scale not given: the % may be the effect or the level left.

This note sets out measurements from ChEMBL document CHEMBL4138198, “Synthesis of new 1-benzyl tetrahydropyridinylidene ammonium salts and their antimicrobial and anticellular activities” (Eur J Med Chem, 2018).

As usually defined, the IC50 is the concentration at which inhibition is half-maximal. By MIC is commonly meant the smallest concentration in the dilution series that meets the test's criterion for growth inhibition.

As to `CC1(C)CC(=[N+]2CCCC2)C=CN1Cc1ccc2ccccc2n1.[Cl-]`, the values for the IC50 in data set [1], in data set [5] and in data set [8] were 16.6 µM, 0.09 µM and 125 µM, respectively. Further, the figures for the selectivity ratio in [2] and in [4] were 7.53 and 1390, respectively. In data set [3], the inhibition at 72 h, 140 µM lay within 27 to 56%. Besides, the MSD in [6] worked out at 3 days. In addition, in data set [7], the Activity amounted to 0%.

On to `CC1(C)CC(=[N+]2CCCC2)C=CN1Cc1ccc(C(F)(F)F)cc1.[Br-]`, for which the zone of inhibition at 50 µg/disc was 8 mm in data set [9]; 15 mm in [10]; 10 mm in [11]; 15 mm in data set [12]; 0 mm in data set [13]; 18 mm in data set [15]. Moreover, the zone of inhibition at 50 µg/disc in data set [16] is 7 mm; in [17], 0 mm; in data set [19], 0 mm. The IC50 was found to be 27.2 µM in data set [1], 0.036 µM in [5] and 125 µM in data set [8]. Besides, the selectivity ratio in data set [2] is 4.6; in data set [4], 3480. The MSD in data set [6] came to 7 days. Besides, the inhibition at 72 h, 120 µM in data set [14] fell in the range of 27 to 56%. Further, the Activity in data set [7] came out at 54.2%. For the same compound, it took 64 µg/mL to inhibit growth in data set [18] (MIC).

For the compound `CC1(C)CC(=[N+]2CCCC2)C=CN1Cc1ccc([N+](=O)[O-])cc1.[Cl-]`, the zone of inhibition at 50 µg/disc in [9] came to 0 mm; in data set [10] it was 13 mm; in data set [11], 0 mm; in data set [12], 8 mm; in data set [13], 0 mm; in [15], 7 mm. For the same compound, the zone of inhibition at 50 µg/disc in [16] was 7 mm; in [17], 0 mm; in data set [19], 0 mm. Besides, the IC50 in data set [1] was 79.8 µM; in data set [5] it was 0.1 µM; in data set [8] it was more than 286 µM. Besides, the selectivity ratio is more than 3.58 in data set [2] and more than 2860 in [4]. In addition, in data set [20], the MSD was 7 days. The compound further returned an MIC in [18] not below 128 µg/mL. In addition, in data set [21], the Activity worked out at 78.4%.
